Experimental data reported in the supplement of paper PMC10307832.

How the values were obtained:
Test in all cases: relative viability (nuclei count vs DMSO), 5 days (fraction); higher = more cells survive
201T = tested on: 201T
Outline: (§1)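 Relative viability was taken as the ratio of nuclei in treated wells to nuclei in vehicle wells. Lung cancer cell lines in 1536-well plates received compounds by pin tool one day after seeding, either one drug alone or a fixed anchor-drug dose plus five library-drug doses (not always all listed) in √10 steps. Nuclei were counted on 4× images after 5 days of treatment, and values are medians of duplicate plates.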

BEN = tested on: BEN
Outline: as §1

CAL-12T = tested on: CAL-12T
Outline: as §1

HCC-44 = tested on: HCC-44
Outline: as §1

HCC-827 = tested on: HCC-827
Outline: as §1

HOP-62 = tested on: HOP-62
Outline: as §1

LCLC-103H = tested on: LCLC-103H
Outline: as §1

LCLC-97TM1 = tested on: LCLC-97TM1
Outline: as §1

LXF-289 = tested on: LXF-289
Outline: as §1

NCI-H1355 = tested on: NCI-H1355
Outline: as §1

NCI-H1395 = tested on: NCI-H1395
Outline: as §1

NCI-H1437 = tested on: NCI-H1437
Outline: as §1

NCI-H1650 = tested on: NCI-H1650
Outline: as §1

NCI-H1793 = tested on: NCI-H1793
Outline: as §1

NCI-H2023 = tested on: NCI-H2023
Outline: as §1

NCI-H2087 = tested on: NCI-H2087
Outline: as §1

NCI-H2228 = tested on: NCI-H2228
Outline: as §1

NCI-H2405 = tested on: NCI-H2405
Outline: as §1

NCI-H3122 = tested on: NCI-H3122
Outline: as §1

NCI-H322M = tested on: NCI-H322M
Outline: as §1

NCI-H647 = tested on: NCI-H647
Outline: as §1

RERF-LC-KJ = tested on: RERF-LC-KJ
Outline: as §1

SK-LU-1 = tested on: SK-LU-1
Outline: as §1

COc1cc(N2CCC(C(N)=O)CC2)ccc1Nc1nc(N)c(Cl)c(Nc2ccccc2S(=O)(=O)C(C)C)n1 [HG-5-88-01] + Nc1nc2[nH]cc(CCc3ccc(C(=O)N[C@@H](CCC(=O)O)C(=O)O)cc3)c2c(=O)[nH]1 [Pemetrexed] (partner 0.2 µM)
relative viability (201T; first compound 0.04 µM): 0.301 | relative viability (201T; first compound 0.1265 µM): 0.325 | relative viability (201T; first compound 1.265 µM): 0.332 | relative viability (201T; first compound 4 µM): 0.272 | relative viability (BEN; first compound 0.04 µM): 0.76 | relative viability (BEN; first compound 0.1265 µM): 0.648 | relative viability (BEN; first compound 0.4 µM): 0.717 | relative viability (BEN; first compound 1.265 µM): 0.687 | relative viability (BEN; first compound 4 µM): 0.711 | relative viability (CAL-12T; first compound 0.04 µM): 1.25 | relative viability (CAL-12T; first compound 0.1265 µM): 1.14 | relative viability (CAL-12T; first compound 0.4 µM): 1.24 | relative viability (CAL-12T; first compound 1.265 µM): 0.995 | relative viability (CAL-12T; first compound 4 µM): 0.754 | relative viability (HCC-44; first compound 0.04 µM): 0.596 | relative viability (HCC-44; first compound 0.1265 µM): 0.662 | relative viability (HCC-44; first compound 0.4 µM): 0.538 | relative viability (HCC-44; first compound 1.265 µM): 0.699 | relative viability (HCC-44; first compound 4 µM): 0.69 | relative viability (HCC-827; first compound 0.04 µM): 0.24 | relative viability (HCC-827; first compound 0.1265 µM): 0.262 | relative viability (HCC-827; first compound 0.4 µM): 0.216 | relative viability (HCC-827; first compound 1.265 µM): 0.141 | relative viability (HCC-827; first compound 4 µM): 0.193 | relative viability (HOP-62; first compound 0.04 µM): 0.319 | relative viability (HOP-62; first compound 0.1265 µM): 0.297 | relative viability (HOP-62; first compound 0.4 µM): 0.288 | relative viability (HOP-62; first compound 1.265 µM): 0.381 | relative viability (HOP-62; first compound 4 µM): 0.341 | relative viability (LCLC-103H; first compound 0.04 µM): 0.443 | relative viability (LCLC-103H; first compound 0.1265 µM): 0.505 | relative viability (LCLC-103H; first compound 0.4 µM): 0.462 | relative viability (LCLC-103H; first compound 1.265 µM): 0.492 | relative viability (LCLC-103H; first compound 4 µM): 0.33 | relative viability (LCLC-97TM1; first compound 0.04 µM): 0.208 | relative viability (LCLC-97TM1; first compound 0.1265 µM): 0.179 | relative viability (LCLC-97TM1; first compound 0.4 µM): 0.132 | relative viability (LCLC-97TM1; first compound 1.265 µM): 0.155 | relative viability (LCLC-97TM1; first compound 4 µM): 0.131 | relative viability (LXF-289; first compound 0.04 µM): 0.931 | relative viability (LXF-289; first compound 0.1265 µM): 0.933 | relative viability (LXF-289; first compound 0.4 µM): 0.887 | relative viability (LXF-289; first compound 1.265 µM): 0.93 | relative viability (LXF-289; first compound 4 µM): 0.926 | relative viability (NCI-H1355; first compound 0.04 µM): 1.11 | relative viability (NCI-H1355; first compound 0.1265 µM): 1.03 | relative viability (NCI-H1355; first compound 0.4 µM): 0.726 | relative viability (NCI-H1355; first compound 1.265 µM): 1.04 | relative viability (NCI-H1355; first compound 4 µM): 0.685 | relative viability (NCI-H1395; first compound 0.04 µM): 0.825 | relative viability (NCI-H1395; first compound 0.1265 µM): 0.923 | relative viability (NCI-H1395; first compound 0.4 µM): 0.751 | relative viability (NCI-H1395; first compound 1.265 µM): 1.05 | relative viability (NCI-H1395; first compound 4 µM): 0.753 | relative viability (NCI-H1437; first compound 0.04 µM): 0.296 | relative viability (NCI-H1437; first compound 0.1265 µM): 0.334 | relative viability (NCI-H1437; first compound 0.4 µM): 0.267 | relative viability (NCI-H1437; first compound 1.265 µM): 0.327 | relative viability (NCI-H1437; first compound 4 µM): 0.277 | relative viability (NCI-H1650; first compound 0.04 µM): 0.352 | relative viability (NCI-H1650; first compound 0.1265 µM): 0.36 | relative viability (NCI-H1650; first compound 0.4 µM): 0.346 | relative viability (NCI-H1650; first compound 1.265 µM): 0.343 | relative viability (NCI-H1650; first compound 4 µM): 0.354 | relative viability (NCI-H1793; first compound 0.04 µM): 0.829 | relative viability (NCI-H1793; first compound 0.1265 µM): 0.8 | relative viability (NCI-H1793; first compound 0.4 µM): 0.828 | relative viability (NCI-H1793; first compound 1.265 µM): 0.692 | relative viability (NCI-H1793; first compound 4 µM): 0.522 | relative viability (NCI-H2023; first compound 0.04 µM): 0.231 | relative viability (NCI-H2023; first compound 0.1265 µM): 0.23 | relative viability (NCI-H2023; first compound 0.4 µM): 0.175 | relative viability (NCI-H2023; first compound 1.265 µM): 0.165 | relative viability (NCI-H2023; first compound 4 µM): 0.171 | relative viability (NCI-H2087; first compound 0.04 µM): 0.664 | relative viability (NCI-H2087; first compound 0.1265 µM): 0.689 | relative viability (NCI-H2087; first compound 0.4 µM): 0.67 | relative viability (NCI-H2087; first compound 1.265 µM): 0.651 | relative viability (NCI-H2087; first compound 4 µM): 0.715 | relative viability (NCI-H2228; first compound 0.04 µM): 0.372 | relative viability (NCI-H2228; first compound 0.1265 µM): 0.237 | relative viability (NCI-H2228; first compound 0.4 µM): 0.237 | relative viability (NCI-H2228; first compound 1.265 µM): 0.26 | relative viability (NCI-H2228; first compound 4 µM): 0.183 | relative viability (NCI-H2405; first compound 0.04 µM): 0.965 | relative viability (NCI-H2405; first compound 0.1265 µM): 1.16 | relative viability (NCI-H2405; first compound 0.4 µM): 0.973 | relative viability (NCI-H2405; first compound 1.265 µM): 0.852 | relative viability (NCI-H2405; first compound 4 µM): 0.954 | relative viability (NCI-H3122; first compound 0.04 µM): 0.171 | relative viability (NCI-H3122; first compound 0.1265 µM): 0.161 | relative viability (NCI-H3122; first compound 0.4 µM): 0.144 | relative viability (NCI-H3122; first compound 1.265 µM): 0.157 | relative viability (NCI-H3122; first compound 4 µM): 0.115 | relative viability (NCI-H322M; first compound 0.04 µM): 0.638 | relative viability (NCI-H322M; first compound 0.1265 µM): 0.536 | relative viability (NCI-H322M; first compound 0.4 µM): 0.607 | relative viability (NCI-H322M; first compound 1.265 µM): 0.55 | relative viability (NCI-H322M; first compound 4 µM): 0.509 | relative viability (NCI-H647; first compound 0.04 µM): 0.159 | relative viability (NCI-H647; first compound 0.1265 µM): 0.194 | relative viability (NCI-H647; first compound 1.265 µM): 0.184 | relative viability (NCI-H647; first compound 4 µM): 0.157 | relative viability (RERF-LC-KJ; first compound 0.04 µM): 0.521 | relative viability (RERF-LC-KJ; first compound 0.1265 µM): 0.509 | relative viability (RERF-LC-KJ; first compound 0.4 µM): 0.448 | relative viability (RERF-LC-KJ; first compound 1.265 µM): 0.446 | relative viability (RERF-LC-KJ; first compound 4 µM): 0.239 | relative viability (SK-LU-1; first compound 0.04 µM): 0.919 | relative viability (SK-LU-1; first compound 0.1265 µM): 0.956 | relative viability (SK-LU-1; first compound 0.4 µM): 0.925 | relative viability (SK-LU-1; first compound 1.265 µM): 1.01 | relative viability (SK-LU-1; first compound 4 µM): 0.866
